The compounds below were run against hCA II (Homo sapiens, UniProt P00918) (assay: stopped-flow CO2 hydrase assay, hCA II). Conditions: 20 mM Hepes pH 7.5, 20 mM NaClO4, mean from 3 assays.
Type: biochemical

Work on `F[P-](F)(F)(F)(F)F` [PF6^–, haxafluorophosphate] yielded a Ki greater than 100 mM.

Each compound was assayed against Tg_CA (Toxoplasma gondii α-CA) (Toxoplasma gondii, UniProt S8F479) (assay: biochemical). Conditions: not given.
Type: biochemical

Sequence of Tg_CA (Toxoplasma gondii α-CA) (S8F479 486-829 limits assumed): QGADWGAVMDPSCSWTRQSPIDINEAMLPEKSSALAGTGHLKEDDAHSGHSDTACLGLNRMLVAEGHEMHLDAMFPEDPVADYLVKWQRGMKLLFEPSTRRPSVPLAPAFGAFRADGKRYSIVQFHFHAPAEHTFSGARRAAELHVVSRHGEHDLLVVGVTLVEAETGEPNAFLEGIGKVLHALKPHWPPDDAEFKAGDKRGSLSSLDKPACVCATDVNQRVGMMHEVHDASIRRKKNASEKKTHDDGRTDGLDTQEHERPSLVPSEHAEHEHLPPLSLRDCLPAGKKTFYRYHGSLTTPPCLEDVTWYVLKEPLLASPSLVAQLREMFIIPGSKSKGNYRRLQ

Compound `OB(O)c1ccccc1` [Ph-B(OH)2, phenylboronic acid] has a Ki of 5.1 mM.

Same assay, conditions: pH 7.5; read-out: KI (mM) Tg_CAα

Compared with `N#CS` [SCN^–, thiocyanate], `N#C[SeH]` [SeCN^–, selenocyanate] is higher in Ki: 31.9 mM for the first, greater than 100 mM for the second.

`[O]=[Ru](=[O])(=[O])=[O]` [RuO4^–, perruthenate] and `[O]=[Re](=[O])(=[O])[OH]` [ReO4^–, perrhenate] are within 1.5-fold of each other in Ki: 2.3 mM for the first, 3.4 mM for the second.

Compared with `O=S(O)O` [HSO3^–, bisulphite], `O=C(O)O` [CO3^2–, carbonate] is 11-fold higher in Ki: 9.1 mM for the first, 98.2 mM for the second.

`O=[N+]([O-])O` [NO3^–, nitrate] and `O=NO` [NO2^–, nitrite] are within 1.5-fold of each other in Ki: 8.5 mM for the first, 6.4 mM for the second.

First: S=C(S)S [CS3^2–, trithiocarbonate]
Second: CCN(CC)C(=S)S [Et2NCS2^–, N,N-diethyldithiocarbamate]
The Ki of the first is 1.5-fold higher: 4.8 mM for the first, 3.1 mM for the second.

Going from `O=[Te](=O)(O)O` [TeO4^2–, tellurate] to `O=S(=O)(O)O` [SO4^2–, sulphate], the Ki rises from 2.5 mM to 6 mM (2.4-fold).

`I` [I^–] and `Cl` [Cl^–, chloride] cannot be ordered by Ki: greater than 100 mM for the first, greater than 100 mM for the second.

`NS(N)(=O)=O` [H2NSO2NH2, sulfamide] and `NS(=O)(=O)O` [H2NSO3H, sulphamic acid] are within 1.5-fold of each other in Ki: 0.92 mM for the first, 0.68 mM for the second.

`[O]=[V]([OH])([OH])[O][V](=[O])([OH])[OH]` [V2O7^4–, divanadate] and `O=P(O)(O)OP(=O)(O)O` [P2O7^4–, diphosphate] are within 1.5-fold of each other in Ki: 39.8 mM for the first, 35.7 mM for the second.

Compared with `O=S(=O)(O)OOS(=O)(=O)O` [S2O8^2–, peroxydisulfate], `O=S(=O)(O)NS(=O)(=O)O` [NH(SO3)2^2–, iminodisulfonate] is 3.1-fold lower in Ki: 26.6 mM for the first, 8.5 mM for the second.

First: N#CO [CNO^–, cyanate]
Second: O=C(O)O [HCO3^–, bicarbonate]
The Ki of the first is lower: 49.6 mM for the first, greater than 100 mM for the second.

Compared with `F[P-](F)(F)(F)(F)F` [PF6^–, haxafluorophosphate], `F[B-](F)(F)F` [BF4^–, tetrafluoroborate] is 13-fold higher in Ki: 1.9 mM for the first, 25 mM for the second.

`Br` [Br^–] and `F` [F^–] cannot be ordered by Ki: greater than 100 mM for the first, greater than 100 mM for the second.

Compared with `[N-]=[N+]=[N-]` [N3^–, azide], `[O-][Cl+3]([O-])([O-])O` [ClO4^–, perchlorate] is lower in Ki: greater than 100 mM for the first, 77.8 mM for the second. The second binds more tightly here.

Going from `S` [HS^–, hydrogensulfide] to `O=S(=O)(O)C(F)(F)F` [CF3SO3^–, triflate], the Ki falls from 45.7 mM to 7.1 mM (6.4-fold). The second binds more tightly here.

`OB1OB2OB(O)OB(O1)O2` [B4O7^2–, tetraborate] was tested, and the Ki was 63.9 mM.
